Assay [1] concerns the target T1, Sphingobacterium multivorum SPT (Sphingobacterium multivorum, UniProt A7BFV6).
T1 construct: harboring the plasmid expressing the full-length SPT; made in house; host or cells: Escherichia coli BL21 (DE3) pLysS
Briefly: Chiral HPLC of 7-methoxycoumarin-labeled KDS enantiomers after SPT reaction or incubation. It counts as biochemical. Particulars: 1.3 mM KDS incubated with 230 μM SPT, 37 °C, 120 min. From the text: KDS has a chiral center at the C2 position to which hydrogen, hydroxymethyl, amino, and acyl groups are attached. In the present study, it was necessary to know which optical isomer, (2S)- or (2R)-KDS, was formed from D-serine. In order to detect KDS enantiomers, we developed a new method in which each enantiomer of 7-methoxycoumarin-labeled KDS was separated and quantified by chiral HPLC (Fig. 2A). First, the standard compounds (2S)-2-amino-1-hydroxyoctadecan-3-one (L-serine–type (2S)-KDS) and (2R)-2-amino-1-hydroxyoctadecan-3-one (D-serine–type (2R)-KDS) were chemically synthesized (Supporting information). Next, the conditions for fluorescence labeling and HPLC were examined using these authentic compounds; the successful separation of KDS enantiomers was achieved by 7-methoxycoumarin labeling of the amino group of KDS (Fig. 2B, lines 1–3). The labeled (2S)-KDS and (2R)-KDS were eluted at 7.7 and 8.9 min, respectively, with the calculated separation factor of 1.3 (Fig. 2B, line 3). When the SPT reaction product derived from L-serine was analyzed, two fluorescence peaks were detected (Fig. 2B, line 4). […] Similarly, for the SPT reaction product derived from D-serine, two fluorescence peaks corresponding to 7-methoxycoumarin-labeled (2S)-KDS and 7-methoxycoumarin-labeled (2R)-KDS were detected (Fig. 2B, line 5). […]

Assay [2] has as its target T1, Sphingobacterium multivorum SPT. The assay is described as follows: Spectroscopic titration of SPT with amino acids (422 nm absorption, external aldimine formation). Conditions: 10 μM SPT. It counts as binding. Here is the method: (§1) Dependency of the reaction rates on amino acid concentrations under the condition of 1 mM palmitoyl-CoA was examined (Table 1). Each LCB product was quantified by the fluorescence intensity based on the standard curve obtained by using the corresponding authentic compound ([23]). The value of apparent catalytic efficiency ( kcatapp/Kmapp ) for D-serine was 0. 0013 min^–1 mM^–1 and was much smaller than that for L-serine ( kcatapp/Kmapp = 3.6 min^–1 mM^–1). Therefore, the KDS production by SPT from D-serine is considered to be negligible at the physiological concentration of D-serine. Next, binding of D-serine to the S. multivorum SPT was examined by spectroscopic titration. When SPT was incubated with D-serine, spectral changes corresponding to the external aldimine formation between PLP and the amino acid were observed (Supporting information).
Figure S1. Spectroscopic titration of the S. multivorum SPT with D-serine or α-methyl-D-serine. (A) Absorption spectra of SPT (10 μM) in the presence of 0, 2.0, 5.0, 9.9, 15, 20, 29, 38, and 48 mM D-serine (lines 1–9, respectively).
(B) Absorption spectra of SPT (10 μM) in the presence of 0, 3.0, 6.0, 9.9, 20, 34, 52, 74, and 99 mM α-methyl-D-serine (lines 1–9, respectively).
Determination of dissociation constants (Kd) for amino acids.
The titration assay was carried out as previously reported (1). The changes of the 422 nm-absorption intensities of SPT upon addition of amino acids were plotted against the final concentrations of the amino acids, and the Kd values were calculated by fitting to a hyperbolic saturation curve using Igor Pro 6.37. software (Wave Matrix Inc., Lake Oswego, Oregon, […]
United States). […]

Assay [3] shares this target. The assay is described as follows: TLC/autoradiography analysis of KDS formation. In kind it is biochemical. Conditions: 500 mM serine, 1 mM [1-14C]-palmitoyl-CoA, 100 μM SPT, 37 °C, 60 min. An excerpt:
We previously reported that the KDS formation from D-serine was not detected under physiological assay conditions using S. paucimobilis SPT ([15], [47]). […] Each reaction product was ninhydrin-positive with the specific color and the Rf value, which corresponded to those of a commercial authentic KDS on the TLC plate (Fig. 1A, lanes 2 and 4). […] Such radioactive reaction products were not detected under the reaction condition lacking the amino acid substrate or SPT. The structure of the reaction product derived from each serine enantiomer was confirmed by HPLC/triple quadrupole/linear ion trap mass spectrometry using a commercially available authentic KDS as the standard (Fig. 1C).
Figure 1 Formation of KDS from L-serine and D-serine by the Sphingobacterium multivorum SPT.A, image of the TLC analysis of KDS visualized with ninhydrin reagent: lane 1, extract of the reaction mixture without the amino acid substrate; lane 2, extract of the reaction mixture with L-serine; lane 3, commercial authentic KDS (L-serine–derived, (2S)-KDS); lane 4, extract of the reaction mixture with D-serine; lane 5, extract of the reaction mixture without SPT. The complete reaction mixture contained 500 mM L-/D-serine, 1 mM palmitoyl-CoA, and 100 μM SPT and was incubated at 37 °C for 60 min. […] Radioactivity was incorporated to the reaction product from the substrate [1-^14C]-palmitoyl-CoA. […]

The target is the same in assay [4]. The assay is described as follows: Steady-state kinetics of LCB (KDS) formation by SPT. It counts as biochemical. Particulars: 1 mM palmitoyl-CoA. Here is the method:
as §1
The assay was performed as previously reported ([23]). For qualitative analysis, 500 mM of L-serine or D-serine was incubated with 1 mM palmitoyl-CoA and 100 μM SPT in 100 μl of 100 mM potassium phosphate, pH 7.5, at 37 °C for 60 min. [1-^14C] palmitoyl-CoA (20 kBq/μmol) was supplemented into the above reaction mixture as the tracer. The reactions were terminated by addition of the equal volume of 2 N ammonia. Lipids were extracted by successive addition and mixing of 750 μl of chloroform/methanol (1:2, v/v), 250 μl of chloroform, and 250 μl of 1% KCl. Phases were separated by centrifugation, and the organic phase was recovered. […] For the quantitative analysis, the UV-fluorescence intensities of the reaction products on TLC plates were visualized by a Fusion chemiluminescence imaging system using a UV-light box and analyzed by a FUSION Capt software (Vilber Lourmat).
Steady-state kinetic parameters were determined by varying the concentrations of D-serine in the presence of 1 mM palmitoyl-CoA in 100 μl of 100 mM potassium phosphate, pH 7.5, at 37 °C. […] The reaction termination, lipid extraction, TLC analysis, and quantification of the reaction products on TLC plates were described above. […]

For assay [5] the target is unchanged. The assay is described as follows: Serine racemase assay of SPT (fluorescence derivatization, reverse-phase HPLC). Conditions: 1 mM D-serine, 47 μM SPT, 37 °C, no palmitoyl-CoA. In kind it is biochemical.
Method: In order to verify the possibility of conversion between D-serine and L-serine, the serine racemase activity of SPT in the absence of palmitoyl-CoA was examined by the combination of fluorescence labeling and reverse-phase HPLC (Fig. 4).
One millimolar L-serine or D-serine was incubated with or without 47 μM SPT at 37 °C for 24 h. […] The reaction mixture containing 1 mM serine and 47 μM SPT was incubated at 37 °C for 1 to 24 h. […] The reaction mixture contained 1 mM serine and either or both of 1 mM PLP and 47 μM SPT.
Serine racemase assay of SPT was performed by determining the amount of each antipodal serine derivative formed from D-serine or L-serine as previously reported with some modifications ([48]). After D/L-serine was derivatized to fluorescent diastereomer, the enantioselective detection of serine was performed on an HPLC system with a Multi lambda Fluorescence Detector (Waters Corporation). The reaction was carried out at 37 °C for 1 to 24 h in a reaction mixture (100 μl) containing 100 mM Tris/HCl buffer (pH 7.5), 1 mM D/L-serine, and 47 μM SPT with or without 1 mM PLP. […] For fluorescence detection, the excitation and emission wavelengths were 350 nm and 450 nm, respectively. […]
For assay [6] the target is unchanged. Further details: method as in PMID 23957439. Conditions: 1 mM palmitoyl-CoA; cited from earlier work.
The target is the same in assay [7]. Further details: method as in PMID 23957439. Conditions: spectroscopic titration; cited from earlier work.

Values joined by “and” are separate entries in the source; they are usually repeats but may differ in a detail not shown here. Equal entries are not always repeated. Where two headings read alike, the source gives them in different places. Marks after values point to notes of the source that are not given here.

T1 sequence (A7BFV6 whole entry): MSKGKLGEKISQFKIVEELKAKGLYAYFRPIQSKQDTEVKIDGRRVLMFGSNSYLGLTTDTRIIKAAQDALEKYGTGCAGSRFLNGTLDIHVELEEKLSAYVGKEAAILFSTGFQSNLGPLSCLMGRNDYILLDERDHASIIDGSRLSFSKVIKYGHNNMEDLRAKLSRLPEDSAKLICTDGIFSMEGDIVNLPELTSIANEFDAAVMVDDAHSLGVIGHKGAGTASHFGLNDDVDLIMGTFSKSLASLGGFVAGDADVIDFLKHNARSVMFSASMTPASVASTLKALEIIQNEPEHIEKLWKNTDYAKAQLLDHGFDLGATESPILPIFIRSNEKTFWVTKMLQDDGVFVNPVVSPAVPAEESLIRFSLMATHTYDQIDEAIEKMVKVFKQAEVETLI

`CCCCCCCCCCCCCCCC(=O)[C@H](N)CO` [(2R)-KDS, (2R)-2-amino-1-hydroxyoctadecan-3-one]: the “SPT-dependent racemization of KDS enantiomer” value in assay [1] is given as “the racemized product was formed in each case, albeit in a smaller amount”.

On to `CCCCCCCCCCCCCCCC(=O)[C@@H](N)CO` [(2S)-KDS, (2S)-2-amino-1-hydroxyoctadecan-3-one], for which the “SPT-dependent racemization of KDS enantiomer” value in assay [1] is recorded as “the racemized product was formed in each case, albeit in a smaller amount”.

By Kd is commonly meant the equilibrium constant for the complex coming apart. `N[C@H](CCO)C(=O)O` [D-homoserine] gave a Kd in assay [2] of 90 ± 8 mM.

With `N[C@H](CO)C(=O)O` [D-serine], the “formation of KDS reaction product” value in assay [3] is “the reaction product was formed”. Also, the dissociation constant Kd in assay [2] was 11 ± 1.8 mM. In assay [4], the “kcatapp/Kmapp (apparent catalytic efficiency)” value (“kcatapp/Kmapp” for short) stood at 0.0013 min^–1 mM^–1. In assay [4] (10 μM SPT, pH 7.5, 37 °C), the Kmapp is on record as 237.7 ± 44.3 mM and the kcatapp came out at 0.31 ± 0.02 min^–1. The “formation rate of L-serine from D-serine (racemization)” value in assay [5] is 0.0020 min^–1.

For `C[C@H](N)C(=O)O` [L-alanine], in assay [6], the Kmapp was 110 ± 9.0 ^b mM, the kcatapp is recorded as 0.42 ± 0.011 ^b min^–1 and the “kcatapp/Kmapp” value was 0.0037 ^b min^–1 mM^–1.

`N[C@@H](CCO)C(=O)O` [L-homoserine]: in assay [6], the Kmapp is given as 82 ± 14 ^b mM, the kcatapp is on record as 4.5 ± 0.28 ^b min^–1 and the “kcatapp/Kmapp” value is 0.055 ^b min^–1 mM^–1. The Kd in assay [7] is 3.6 ± 0.2 mM.

As for `N[C@@H](CO)C(=O)O` [L-serine], in assay [6], the Kmapp is 3.6 ± 0.87 ^b mM; the kcatapp is reported as 13 ± 1.0 ^b min^–1; the “kcatapp/Kmapp” value was 3.6 min^–1 mM^–1 and 3.6 ^b min^–1 mM^–1. Besides, the “formation of KDS reaction product” value in assay [3] is reported as “the reaction product was formed”.

Regarding `NCC(=O)O` [glycine], in assay [6], the Kmapp is reported as 77 ± 8.1 ^b mM, the kcatapp is 0.008 ± 0.002 ^b min^–1 and the “kcatapp/Kmapp” value was 0.0001 ^b min^–1 mM^–1. Moreover, in assay [7], the Kd is 71 ± 5.5 mM.

With `C[C@@](N)(CO)C(=O)O` [α-methyl-D-serine, reference compound], in assay [2], the affinity, expressed as Kd, was 27 ± 2.5 mM.

As to `C[C@](N)(CO)C(=O)O` [α-methyl-L-serine, reference compound], the Kd in assay [2] turned out to be 8.3 ± 1.8 mM.

Values taken from publication PMC10912632, “Racemization of the substrate and product by serine palmitoyltransferase from Sphingobacterium multivorum yields two enantiomers of the product from D-serine” (The Journal of Biological Chemistry, 2024).
